# Reference: PubChem BioAssay AID493148 (Sanford-Burnham Center for Chemical Genomics, 2011)
# Calls of active or inactive are those of the source. No rule for the calls is given here.
# Target: Alkaline phosphatase, tissue-nonspecific isozyme (Homo sapiens) (UniProt P05186)
# Assay: human TNAP enzyme inhibitors, SAR follow-up, selectivity assay for mouse IAP inhibitor project, biochemical (AID 493148)
# Conditions: purified enzyme, CDP-Star luminescence, 30 min
# Alkaline phosphatase, tissue-nonspecific isozyme (Homo sapiens), sequence (P05186 whole entry, looked up): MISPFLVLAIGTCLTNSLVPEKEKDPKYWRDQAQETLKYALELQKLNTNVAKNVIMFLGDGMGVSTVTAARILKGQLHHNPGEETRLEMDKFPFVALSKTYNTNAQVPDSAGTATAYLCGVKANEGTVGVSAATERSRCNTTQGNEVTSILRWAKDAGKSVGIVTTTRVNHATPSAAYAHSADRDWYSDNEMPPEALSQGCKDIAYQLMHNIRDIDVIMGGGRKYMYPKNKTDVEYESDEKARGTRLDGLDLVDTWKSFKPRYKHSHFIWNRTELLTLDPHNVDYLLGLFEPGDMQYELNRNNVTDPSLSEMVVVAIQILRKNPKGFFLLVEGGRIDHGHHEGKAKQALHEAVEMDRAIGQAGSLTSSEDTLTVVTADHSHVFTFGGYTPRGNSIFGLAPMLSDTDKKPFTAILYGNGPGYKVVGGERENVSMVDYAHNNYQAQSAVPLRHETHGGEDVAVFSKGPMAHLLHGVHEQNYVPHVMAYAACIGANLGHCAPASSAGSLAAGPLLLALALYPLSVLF
row,IC50,SMILES
1,> 100 µM (inactive),CCn1ncc(CN2CCC(C(=O)Nc3cccc(-c4cccc(F)c4)c3)CC2)c1C
2,> 100 µM (inactive),CC1(c2ccccc2)CC(C)(C)N(C(=S)Nc2ccccc2)c2ccccc21 (stereo not drawn)
3,> 100 µM (inactive),Cc1cccc(NC(=S)NCCC(c2ccccc2)c2ccccc2)c1C
4,> 100 µM (inactive),O=C(CN1C(=O)/C(=C\c2ccco2)SC1=S)Nc1ccccc1C(=O)O
5,> 100 µM (inactive),Cn1cc(CN2CCC(C(=O)Nc3cccc(-c4cccc(F)c4)c3)CC2)cn1
6,> 100 µM (inactive),CCn1nc(C)c(CN2CCC(C(=O)Nc3cccc(-c4cccc(F)c4)c3)CC2)c1C
7,> 100 µM (inactive),S=C(NCCC(c1ccccc1)c1ccccc1)Nc1ccc(Cl)cc1
8,11.4 µM,CCc1ccccc1Nc1nc(-c2ccc(O)c(O)c2)cs1
9,> 100 µM (inactive),CCn1cc(CN2CCC(C(=O)Nc3cccc(-c4cccc(F)c4)c3)CC2)cn1
10,> 100 µM (inactive),Cc1cc(Cl)ccc1NC(=S)NCCC(c1ccccc1)c1ccccc1
11,> 100 µM (inactive),S=C(NCCC(c1ccccc1)c1ccccc1)Nc1ccc(Cl)cc1Cl
12,> 100 µM (inactive),COc1cccc(NC(=S)NCCC(c2ccccc2)c2ccccc2)c1
13,> 100 µM (inactive),CCOC(=O)c1ccc(NC(=S)NCCC(c2ccccc2)c2ccccc2)cc1
14,> 100 µM (inactive),CCn1nc(C)c(CN2CCC(C(=O)Nc3cccc(-c4cccc(Cl)c4)c3)CC2)c1C
15,> 100 µM (inactive),COc1cc([N+](=O)[O-])ccc1NC(=S)NCCC(c1ccccc1)c1ccccc1
16,> 100 µM (inactive),O=C(Nc1cccc(-c2cccc(F)c2)c1)C1CCN(Cc2ccc(CO)o2)CC1
17,> 100 µM (inactive),Cc1cc(C)cc(NC(=S)NCCC(c2ccccc2)c2ccccc2)c1
18,> 100 µM (inactive),S=C(NCCC(c1ccccc1)c1ccccc1)Nc1ccccc1
19,> 100 µM (inactive),CCn1cc(CN2CCC(C(=O)Nc3cccc(-c4cccc(Cl)c4)c3)CC2)cn1
20,> 100 µM (inactive),COc1ccc(Cl)cc1NC(=S)NCCC(c1ccccc1)c1ccccc1
21,> 100 µM (inactive),Fc1ccc(NC(=S)NCCC(c2ccccc2)c2ccccc2)cc1Cl
22,> 100 µM (inactive),Cc1ccc(NC(=O)CCNS(=O)(=O)c2ccc3[nH]c(=O)oc3c2)cc1C
23,> 100 µM (inactive),S=C(NCCC(c1ccccc1)c1ccccc1)Nc1cccc(Cl)c1

row,IC50,SMILES
1,> 100 µM (inactive),CCCn1ncc(CN2CCC(C(=O)Nc3cccc(-c4cccc(F)c4)c3)CC2)c1C
2,> 100 µM (inactive),O=C(CN1C(=O)/C(=C/c2ccco2)SC1=S)Nc1ccc(C(=O)O)cc1
3,34.4 µM,COc1ccc(C(=O)CSc2n[nH]c(-c3ccccc3)n2)cc1OC
4,> 100 µM (inactive),NS(=O)(=O)c1ccc(NC(=S)NCCC(c2ccccc2)c2ccccc2)cc1
5,> 100 µM (inactive),Cn1cc(CN2CCC(C(=O)Nc3cccc(-c4cccc(Cl)c4)c3)CC2)cn1
6,> 100 µM (inactive),CN1CCC(=NNC(=O)c2cc(O)c(O)c(O)c2)CC1
7,> 100 µM (inactive),O=S(=O)(Nc1ncccn1)c1ccc(NC(=S)NCCC(c2ccccc2)c2ccccc2)cc1
8,> 100 µM (inactive),C=CCn1cc(CN2CCC(C(=O)Nc3cccc(-c4cccc(F)c4)c3)CC2)c(C)n1
9,> 100 µM (inactive),CCn1cc(CN2CCC(C(=O)Nc3cccc(-c4cccc(OC)c4)c3)CC2)cn1
10,> 100 µM (inactive),CC(C)n1cc(CN2CCC(C(=O)Nc3cccc(-c4cccc(F)c4)c3)CC2)cn1
11,> 100 µM (inactive),CCn1cc(CN2CCC(C(=O)Nc3cccc(-c4cccc(OC)c4)c3)CC2)c(C)n1
12,> 100 µM (inactive),Cc1ccc(NC(=S)NCCC(c2ccccc2)c2ccccc2)cc1
13,> 100 µM (inactive),O=C(Nc1cccc(-c2cccc(Cl)c2)c1)C1CCN(C2CCC2)CC1
14,> 100 µM (inactive),O=C(Nc1cccc(-c2cccc(Cl)c2)c1)C1CCN(Cc2ccc(CO)o2)CC1
15,> 100 µM (inactive),CCn1c(SCC(=O)c2ccc(O)c(O)c2)nnc1-c1ccccc1OC
16,6.4 µM,Oc1ccc(-c2csc(Nc3cccc4ccccc34)n2)cc1O
17,> 100 µM (inactive),COCc1ccc(CN2CCC(C(=O)Nc3cccc(-c4cccc(Cl)c4)c3)CC2)o1
18,> 100 µM (inactive),Cc1nn(C)c(Cl)c1CN1CCC(C(=O)Nc2cccc(-c3cccc(F)c3)c2)CC1
19,> 100 µM (inactive),Fc1ccccc1NC(=S)NCCC(c1ccccc1)c1ccccc1
20,> 100 µM (inactive),COc1ccc(Cl)cc1Nc1nc(-c2ccc(O)c(O)c2)cs1
21,> 100 µM (inactive),Cc1c(CN2CCC(C(=O)Nc3cccc(-c4cccc(Cl)c4)c3)CC2)cnn1C
22,> 100 µM (inactive),Cc1ccc(NC(=S)NCCC(c2ccccc2)c2ccccc2)cc1C
23,> 100 µM (inactive),COC(=O)c1cc(NC(=S)NCCC(c2ccccc2)c2ccccc2)cc(C(=O)OC)c1

row,IC50,SMILES
1,> 100 µM (inactive),CC(C)c1ccccc1NC(=S)NCCC(c1ccccc1)c1ccccc1
2,> 100 µM (inactive),CC(C)N1CCC(=NNC(=O)c2cc(O)c(O)c(O)c2)CC1
3,> 100 µM (inactive),COc1cccc(-c2cccc(NC(=O)C3CCN(Cc4ccc(C)o4)CC3)c2)c1
4,> 100 µM (inactive),Cc1cc(=O)oc2cc(NC(=S)NCCC(c3ccccc3)c3ccccc3)ccc12
5,> 100 µM (inactive),CC(C)n1cc(CN2CCC(C(=O)Nc3cccc(-c4cccc(Cl)c4)c3)CC2)cn1
6,> 100 µM (inactive),CCN1CCN(S(=O)(=O)c2ccc3[nH]c(=O)oc3c2)CC1
7,> 100 µM (inactive),S=C(NCCC(c1ccccc1)c1ccccc1)Nc1ccc(Cl)c(Cl)c1
8,> 100 µM (inactive),FC(F)(F)c1cccc(NC(=S)NCCC(c2ccccc2)c2ccccc2)c1
9,> 100 µM (inactive),S=C(NCCC(c1ccccc1)c1ccccc1)Nc1ccc(Nc2ccccc2)cc1
10,> 100 µM (inactive),C=CCn1cc(CN2CCC(C(=O)Nc3cccc(-c4cccc(Cl)c4)c3)CC2)c(C)n1
11,> 100 µM (inactive),Cc1ccc(C)c(NC(=S)NCCC(c2ccccc2)c2ccccc2)c1
12,> 100 µM (inactive),Cc1ccc(CN2CCC(C(=O)Nc3cccc(-c4cccc(F)c4)c3)CC2)o1
13,> 100 µM (inactive),COc1cccc(-c2cccc(NC(=O)C3CCN(Cc4ccc(CO)o4)CC3)c2)c1
14,> 100 µM (inactive),Cc1cc(NC(=O)CCNS(=O)(=O)c2ccc3[nH]c(=O)oc3c2)ccc1Br
15,> 100 µM (inactive),O=[N+]([O-])c1ccc(NC(=S)NCCC(c2ccccc2)c2ccccc2)cc1
16,> 100 µM (inactive),O=C(CN1C(=O)/C(=C/c2ccco2)SC1=S)Nc1cccc(C(=O)O)c1
17,> 100 µM (inactive),Cc1c(Cl)cccc1Nc1nc(-c2ccc(O)c(O)c2)cs1
18,> 100 µM (inactive),Cc1nn(C(C)C)c(C)c1CN1CCC(C(=O)Nc2cccc(-c3cccc(F)c3)c2)CC1
19,> 100 µM (inactive),COc1ccc(NC(=S)NCCC(c2ccccc2)c2ccccc2)cc1
20,> 100 µM (inactive),CN(C)S(=O)(=O)c1cccc(NC(=S)NCCC(c2ccccc2)c2ccccc2)c1
21,> 100 µM (inactive),COc1cc(NC(=S)NCCC(c2ccccc2)c2ccccc2)cc(OC)c1
22,> 100 µM (inactive),Cc1c(Cl)cccc1NC(=S)NCCC(c1ccccc1)c1ccccc1
